For orientation: logP means the decadic logarithm of the partition coefficient of the neutral form, usually between octanol and water.

Molecule `OCC=CC#CC#Cc1ccccc1` returned a logP of 2.48.
Take `CC=CC#CC#Cc1ccccc1`: the log partition coefficient (logP) worked out at 4.76.
With `CC=CC#CC#CC#CC=CC(Cl)CO` (stereo unspecified), the logP is 3.91.
With `CC#CC#Cc1ccc(C#CC(Cl)COC(C)=O)s1` (stereo unspecified) the figure was 4.6; with `c1csc(-c2ccc(-c3cccs3)s2)c1`, 5.57; with `C=CC#Cc1ccc(-c2cccs2)s1`, 5.15.
With `CC=CC#CC#CC=CC(=O)OC` the figure was 2.45; with `CC#CC#CC#CC=CC(=O)OC`, 3.85.
With `O=CC=CC#CC#Cc1ccccc1` the figure was 3.09; with `CC#CC#CC#Cc1ccccc1`, 4.91; with `CC=CC#CC=C1C=CC(=O)O1`, 2.09.

For the origin of these results see the OPERA property sets (Mansouri et al. 2018).
